Measurements as given in ChEMBL document CHEMBL1201862, “PubChem BioAssay data set” (2004).
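In this assay, cells in 96-well plates receive the compound at five concentrations for 48 hours. Endpoints are linearly interpolated between the surrounding concentrations. GI50: concentration for 50% inhibition of growth.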 Active and inactive are the calls of the source. Rule as the data show it: active = GI50 up to about 1.1 µM and inactive = higher.

Legend:
Assay in all cases: NCI tumour cell line growth inhibition, 48 h
TK-10 = system: TK-10
HOP-92 = system: HOP-92
NCI-H23 = system: NCI-H23
SW-620 = system: SW-620
HOP-62 = system: HOP-62
SF-539 = system: SF-539
NCI-H226 = system: NCI-H226
RPMI-8226 = system: RPMI-8226
HL-60 = system: HL-60
HCC 2998 = system: HCC 2998
SNB-75 = system: SNB-75
SK-MEL-28 = system: SK-MEL-28
SK-MEL-2 = system: SK-MEL-2
SK-MEL-5 = system: SK-MEL-5
SN12C = system: SN12C
HCT-15 = system: HCT-15
HT-29 = system: HT-29
Hs-578T = system: Hs-578T
U-251 = system: U-251
SNB-19 = system: SNB-19
LOX IMVI = system: LOX IMVI
786-0 = system: 786-0
DU-145 = system: DU-145
Malme-3M = system: Malme-3M
CAKI-1 = system: CAKI-1
MCF7 = system: MCF7
EKVX = system: EKVX
A549 = system: A549
OVCAR-3 = system: OVCAR-3
UACC-257 = system: UACC-257
SR = system: SR
BT-549 = system: BT-549
ACHN = system: ACHN
KM12 = system: KM12
SF-268 = system: SF-268
OVCAR-4 = system: OVCAR-4
NCI/ADR-RES = system: NCI/ADR-RES
MOLT-4 = system: MOLT-4
MDA-MB-435 = system: MDA-MB-435
CCRF-CEM = system: CCRF-CEM
MDA-N = system: MDA-N
SF-295 = system: SF-295
MDA-MB-231 = system: MDA-MB-231
IGROV-1 = system: IGROV-1
NCI-H460 = system: NCI-H460
NCI-H522 = system: NCI-H522
COLO 205 = system: COLO 205
A498 = system: A498
K562 = system: K562
M14 = system: M14
SK-OV-3 = system: SK-OV-3
HCT-116 = system: HCT-116
PC-3 = system: PC-3
OVCAR-8 = system: OVCAR-8
T47D = system: T47D
UACC-62 = system: UACC-62
UO-31 = system: UO-31
OVCAR-5 = system: OVCAR-5
RXF 393 = system: RXF 393

NC1=Nc2cc(Cl)ccc2Sc2nc3ccccc3n21
GI50 (TK-10): > 88.9 µM (inactive) | GI50 (HOP-92): 16.1 µM (inactive) | GI50 (NCI-H23): 6.53 µM (inactive) | GI50 (SW-620): > 86.3 µM (inactive) | GI50 (HOP-62): > 86.3 µM (inactive) | GI50 (SF-539): > 100 µM (inactive) | GI50 (NCI-H226): 2.86 µM (inactive) | GI50 (RPMI-8226): 5.73 µM (inactive) | GI50 (HL-60): 2.39 µM (inactive) | GI50 (HCC 2998): > 100 µM (inactive) | GI50 (SNB-75): 21.4 µM (inactive) | GI50 (SK-MEL-28): > 100 µM (inactive) | GI50 (SK-MEL-2): 20 µM (inactive) | GI50 (SK-MEL-5): 4.92 µM (inactive) | GI50 (SN12C): > 100 µM (inactive) | GI50 (HCT-15): > 100 µM | GI50 (HT-29): 4.53 µM (inactive) | GI50 (Hs-578T): > 72.3 µM (inactive) | GI50 (U-251): 4.48 µM (inactive) | GI50 (SNB-19): 22.2 µM (inactive) | GI50 (LOX IMVI): 4.4 µM (inactive) | GI50 (786-0): 14.2 µM (inactive) | GI50 (DU-145): > 100 µM (inactive) | GI50 (Malme-3M): > 100 µM (inactive) | GI50 (CAKI-1): > 100 µM (inactive) | GI50 (MCF7): > 59.2 µM (inactive) | GI50 (EKVX): 20.3 µM (inactive) | GI50 (A549): > 24.2 µM (inactive) | GI50 (OVCAR-3): > 100 µM (inactive) | GI50 (UACC-257): 5.83 µM (inactive) | GI50 (SR): 2.64 µM (inactive) | GI50 (BT-549): > 100 µM (inactive) | GI50 (ACHN): > 100 µM (inactive) | GI50 (KM12): > 100 µM (inactive) | GI50 (SF-268): > 61.5 µM (inactive) | GI50 (OVCAR-4): > 20.8 µM (inactive) | GI50 (NCI/ADR-RES): > 100 µM (inactive) | GI50 (MOLT-4): 2.61 µM (inactive) | GI50 (MDA-MB-435): > 100 µM (inactive) | GI50 (CCRF-CEM): 1.22 µM (inactive) | GI50 (MDA-N): 3.44 µM (inactive) | GI50 (SF-295): > 95.7 µM (inactive) | GI50 (MDA-MB-231): > 20.7 µM (inactive) | GI50 (IGROV-1): 4.7 µM (inactive) | GI50 (NCI-H460): 4.13 µM (inactive) | GI50 (NCI-H522): 3.92 µM (inactive) | GI50 (COLO 205): 2.5 µM (inactive) | GI50 (A498): > 100 µM (inactive) | GI50 (K562): 3.47 µM (inactive) | GI50 (M14): 2.52 µM (inactive) | GI50 (SK-OV-3): > 100 µM (inactive) | GI50 (HCT-116): 1.87 µM (inactive) | GI50 (PC-3): 6.76 µM (inactive) | GI50 (OVCAR-8): 5.09 µM (inactive) | GI50 (T47D): > 33.8 µM (inactive) | GI50 (UACC-62): 4.66 µM (inactive) | GI50 (UO-31): > 100 µM (inactive)

CC(N)(CC(O)(C(F)(F)Cl)C(F)(F)Cl)C(=O)O (stereo not given)
GI50 (TK-10): > 10 µM (inactive) | GI50 (HOP-92): > 10 µM (inactive) | GI50 (NCI-H23): > 10 µM (inactive) | GI50 (SW-620): > 10 µM (inactive) | GI50 (HOP-62): > 10 µM (inactive) | GI50 (SF-539): > 10 µM (inactive) | GI50 (NCI-H226): > 10 µM (inactive) | GI50 (HCC 2998): > 10 µM (inactive) | GI50 (SNB-75): > 10 µM (inactive) | GI50 (SK-MEL-28): > 10 µM (inactive) | GI50 (SK-MEL-5): > 10 µM (inactive) | GI50 (SN12C): > 10 µM (inactive) | GI50 (HCT-15): > 10 µM | GI50 (HT-29): > 10 µM (inactive) | GI50 (Hs-578T): > 10 µM (inactive) | GI50 (U-251): > 10 µM (inactive) | GI50 (SNB-19): > 10 µM (inactive) | GI50 (LOX IMVI): > 10 µM (inactive) | GI50 (786-0): > 10 µM (inactive) | GI50 (DU-145): > 10 µM (inactive) | GI50 (Malme-3M): > 10 µM (inactive) | GI50 (CAKI-1): > 10 µM (inactive) | GI50 (MCF7): > 10 µM (inactive) | GI50 (EKVX): > 10 µM (inactive) | GI50 (A549): > 10 µM (inactive) | GI50 (OVCAR-3): > 10 µM (inactive) | GI50 (UACC-257): > 10 µM (inactive) | GI50 (SR): > 10 µM (inactive) | GI50 (BT-549): > 10 µM (inactive) | GI50 (ACHN): > 10 µM (inactive) | GI50 (KM12): > 10 µM (inactive) | GI50 (SF-268): > 10 µM (inactive) | GI50 (OVCAR-4): > 10 µM (inactive) | GI50 (NCI/ADR-RES): > 10 µM (inactive) | GI50 (MOLT-4): > 10 µM (inactive) | GI50 (MDA-MB-435): > 10 µM (inactive) | GI50 (OVCAR-5): > 10 µM (inactive) | GI50 (CCRF-CEM): > 10 µM (inactive) | GI50 (MDA-N): > 10 µM (inactive) | GI50 (SF-295): > 10 µM (inactive) | GI50 (MDA-MB-231): > 10 µM (inactive) | GI50 (IGROV-1): > 10 µM (inactive) | GI50 (NCI-H460): > 10 µM (inactive) | GI50 (NCI-H522): > 10 µM (inactive) | GI50 (COLO 205): > 10 µM (inactive) | GI50 (A498): > 10 µM (inactive) | GI50 (K562): > 10 µM (inactive) | GI50 (M14): > 10 µM (inactive) | GI50 (SK-OV-3): > 10 µM (inactive) | GI50 (HCT-116): > 10 µM (inactive) | GI50 (PC-3): > 10 µM (inactive) | GI50 (OVCAR-8): > 10 µM (inactive) | GI50 (T47D): > 10 µM (inactive) | GI50 (UACC-62): > 10 µM (inactive) | GI50 (UO-31): > 10 µM (inactive)

CCOC(=O)Cc1nn2c(=O)cc(C)nc2s1
GI50 (TK-10): > 100 µM (inactive) | GI50 (HOP-92): > 100 µM (inactive) | GI50 (NCI-H23): > 100 µM (inactive) | GI50 (SW-620): > 100 µM (inactive) | GI50 (HOP-62): > 100 µM (inactive) | GI50 (SF-539): 55.2 µM (inactive) | GI50 (NCI-H226): > 100 µM (inactive) | GI50 (RPMI-8226): > 100 µM (inactive) | GI50 (HL-60): > 100 µM (inactive) | GI50 (HCC 2998): > 100 µM (inactive) | GI50 (SNB-75): > 100 µM (inactive) | GI50 (SK-MEL-28): > 100 µM (inactive) | GI50 (SK-MEL-2): > 100 µM (inactive) | GI50 (SK-MEL-5): > 100 µM (inactive) | GI50 (SN12C): > 100 µM (inactive) | GI50 (HCT-15): > 100 µM | GI50 (HT-29): > 100 µM (inactive) | GI50 (Hs-578T): > 100 µM (inactive) | GI50 (U-251): > 100 µM (inactive) | GI50 (SNB-19): > 100 µM (inactive) | GI50 (LOX IMVI): > 100 µM (inactive) | GI50 (786-0): > 100 µM (inactive) | GI50 (DU-145): > 100 µM (inactive) | GI50 (Malme-3M): > 100 µM (inactive) | GI50 (CAKI-1): > 100 µM (inactive) | GI50 (MCF7): > 100 µM (inactive) | GI50 (EKVX): > 100 µM (inactive) | GI50 (A549): > 100 µM (inactive) | GI50 (RXF 393): > 100 µM (inactive) | GI50 (OVCAR-3): > 100 µM (inactive) | GI50 (UACC-257): > 100 µM (inactive) | GI50 (SR): > 100 µM (inactive) | GI50 (BT-549): > 100 µM (inactive) | GI50 (ACHN): > 100 µM (inactive) | GI50 (KM12): > 100 µM (inactive) | GI50 (SF-268): > 100 µM (inactive) | GI50 (OVCAR-4): > 100 µM (inactive) | GI50 (NCI/ADR-RES): > 100 µM (inactive) | GI50 (MOLT-4): > 100 µM (inactive) | GI50 (MDA-MB-435): > 100 µM (inactive) | GI50 (OVCAR-5): > 100 µM (inactive) | GI50 (CCRF-CEM): > 100 µM (inactive) | GI50 (MDA-N): > 100 µM (inactive) | GI50 (SF-295): > 100 µM (inactive) | GI50 (MDA-MB-231): > 100 µM (inactive) | GI50 (IGROV-1): > 100 µM (inactive) | GI50 (NCI-H460): > 100 µM (inactive) | GI50 (NCI-H522): > 100 µM (inactive) | GI50 (COLO 205): > 100 µM (inactive) | GI50 (K562): > 100 µM (inactive) | GI50 (M14): > 100 µM (inactive) | GI50 (SK-OV-3): > 100 µM (inactive) | GI50 (HCT-116): > 100 µM (inactive) | GI50 (PC-3): > 100 µM (inactive) | GI50 (OVCAR-8): > 100 µM (inactive) | GI50 (T47D): > 100 µM (inactive) | GI50 (UACC-62): > 100 µM (inactive) | GI50 (UO-31): > 100 µM (inactive)
